Laboratory results reported in article PMC9534826 (Journal of Applied Glycoscience, 2022).

Tested on: PxXyl43A
Experiment: p-nitrophenol release, absorbance at […] nm
Type: biochemical, Paenibacillus xylaniclasticus
Conditions: pH 7.0, 50 mM potassium phosphate, 54 °C, 1.5 min, 1.8 to 9.0 mM pNPX

Question: For `O=[N+]([O-])c1ccc(O[C@@H]2OC[C@@H](O)[C@H](O)[C@H]2O)cc1` [pNPX], which Km is on record?
Answer: 1200 µM
